Laboratory results reported in paper PMC3914206.

Target: T1, panel of 442 kinases (Homo sapiens, UniProt O95835)
T1 construct: purchased KINOMEscan
T1 sequence (O95835 1-1130): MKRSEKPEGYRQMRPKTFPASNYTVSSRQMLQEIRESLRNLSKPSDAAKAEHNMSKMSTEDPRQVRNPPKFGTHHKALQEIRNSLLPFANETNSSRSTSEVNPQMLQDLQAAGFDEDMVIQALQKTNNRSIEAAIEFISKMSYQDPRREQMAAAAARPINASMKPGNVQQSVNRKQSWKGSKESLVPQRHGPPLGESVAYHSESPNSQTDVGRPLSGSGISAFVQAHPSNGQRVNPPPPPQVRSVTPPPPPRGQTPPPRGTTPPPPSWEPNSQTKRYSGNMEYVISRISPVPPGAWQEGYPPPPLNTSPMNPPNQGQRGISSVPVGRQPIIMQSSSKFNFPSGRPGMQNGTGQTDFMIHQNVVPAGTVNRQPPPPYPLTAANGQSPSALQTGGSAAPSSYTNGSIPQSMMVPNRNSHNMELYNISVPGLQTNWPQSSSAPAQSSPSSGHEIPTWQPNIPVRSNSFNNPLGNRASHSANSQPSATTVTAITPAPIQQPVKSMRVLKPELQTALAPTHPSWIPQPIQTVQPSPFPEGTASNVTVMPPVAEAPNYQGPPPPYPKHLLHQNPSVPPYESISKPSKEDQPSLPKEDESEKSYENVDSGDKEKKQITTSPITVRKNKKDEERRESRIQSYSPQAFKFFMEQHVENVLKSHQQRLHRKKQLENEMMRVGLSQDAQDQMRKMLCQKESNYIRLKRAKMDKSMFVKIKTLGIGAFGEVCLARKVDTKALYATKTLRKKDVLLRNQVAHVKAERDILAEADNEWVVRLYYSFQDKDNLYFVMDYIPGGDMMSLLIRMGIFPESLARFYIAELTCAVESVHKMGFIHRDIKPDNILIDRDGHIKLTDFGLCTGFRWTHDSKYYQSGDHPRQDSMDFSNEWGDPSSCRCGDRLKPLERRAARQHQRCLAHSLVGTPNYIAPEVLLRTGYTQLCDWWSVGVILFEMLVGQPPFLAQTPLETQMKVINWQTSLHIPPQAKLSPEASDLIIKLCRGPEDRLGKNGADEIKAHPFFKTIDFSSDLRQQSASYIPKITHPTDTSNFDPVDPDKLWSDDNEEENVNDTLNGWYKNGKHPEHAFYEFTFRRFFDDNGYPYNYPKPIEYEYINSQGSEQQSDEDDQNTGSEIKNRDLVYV
Type: binding
Settings: Compound Concentration 10 µM
Description: We assessed the selectivity of members of this scaffold using the KINOMEscan methodology across a near comprehensive panel of 442 kinases [[18,27]].

| Structure (SMILES) | KINOMEscan: LATS1 |
| --- | --- |
| COc1cc(C(=O)N2CCC(N3CCN(C)CC3)CC2)ccc1Nc1ncc2c(n1)N(C)c1ccccc1C(=O)N2C [15 (LRRK2-IN-1)] | 100 |
| COc1cc(C(=O)N2CCC(N3CCN(C)CC3)CC2)ccc1Nc1ncc2c(n1)N(C1CCCC1)c1ccccc1C(=O)N2C [Compound 25, 11-cyclopentyl-2-((2-methoxy-4-(4-(4-methylpiperazin-1-yl)piperidine-1-carbonyl)phenyl)amino)-5-methyl-5H-benzo[e]pyrimido[5,4-b][1,4]diazepin-6(11H)-one] | 100 |
| CCOc1cc(C(=O)N2CCC(N3CCN(C)CC3)CC2)ccc1Nc1ncc2c(n1)N(C1CCCC1)c1ccccc1C(=O)N2C [Compound 26] | 100 |
